Here are results for 1 compound from PMC7915449, “Differential Regulation of Bilastine Affinity for Human Histamine H1 Receptors by Lys 179 and Lys 191 via Its Binding Enthalpy and Entropy” (International Journal of Molecular Sciences, 2021).

The target in experiment [1] is T1, K179A + K191A (both Lys179 and Lys191 mutant of H1 receptor to alanine) (Homo sapiens, UniProt P35367, K179A/K191A).
T1 construct: 3xHA (three copies of hemagglutinin YPYDVPDYA) (N); expressed in transfected cells; membrane preparations
T1 sequence (P35367 whole entry K179A/K191A): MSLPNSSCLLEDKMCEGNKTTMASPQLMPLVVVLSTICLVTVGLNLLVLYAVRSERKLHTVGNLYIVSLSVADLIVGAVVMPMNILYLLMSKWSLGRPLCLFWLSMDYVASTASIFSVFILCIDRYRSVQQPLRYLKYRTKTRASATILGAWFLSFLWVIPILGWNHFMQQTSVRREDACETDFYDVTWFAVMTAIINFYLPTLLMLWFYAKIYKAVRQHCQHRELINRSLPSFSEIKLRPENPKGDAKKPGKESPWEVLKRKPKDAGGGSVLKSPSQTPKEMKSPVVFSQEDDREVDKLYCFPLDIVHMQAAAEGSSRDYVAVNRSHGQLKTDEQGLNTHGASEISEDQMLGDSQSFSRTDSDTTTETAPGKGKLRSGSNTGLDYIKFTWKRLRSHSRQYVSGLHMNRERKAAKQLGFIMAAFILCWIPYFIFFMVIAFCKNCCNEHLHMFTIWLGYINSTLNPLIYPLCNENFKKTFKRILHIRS
The experiment in a line: [3H]mepyramine displacement binding, membranes of CHO cells expressing K179A + K191A mutant. As to the method: (§1) To evaluate changes in the binding affinity of bilastine for H1 receptors by mutations of Lys179^ECL2 and/or Lys191^5.39, the IC50 for bilastine was first obtained from the displacement curves for the binding of 3 nM [^3H] mepyramine to membrane preparations of CHO cells expressing wild-type human H1 receptors (WT), Lys179^ECL2 or Lys191^5.39 mutants of WT to alanine (K179A and K191A), and both Lys179^ECL2 and Lys191^5.39 mutants of WT to alanine (K179A + K191A) at 4 °C–37 °C (Figure 3). The Ki values for bilastine were then calculated from the IC50, as described in the materials and methods section.
(§2) CHO cells stably expressing WT, K179A, K191A, and K179A + K191A were cultured, and membrane preparations were obtained as described previously. […] The reaction mixture was filtered through glass fiber filters, and the radioactivity trapped on the filters was determined by scintillation counting. […] The protein content in the membrane preparations was determined using a BCA protein assay kit (Pierce, Rockford, IL, USA).
(§3) The IC50 for bilastine was determined by fitting the displacement curves to the one-site model (KaleidaGraph; Synergy Software, Reading, PA, USA):B = 100 − P × C/(C + IC50) where B is the amount of [^3H] mepyramine bound, C is the free concentration of bilastine, and P is the percentage of the binding sites of bilastine. […]

For experiment [2], the system named is wild-type human H1 receptors (WT). The experiment in a line: biochemical. Particulars: mutants K179A, K191A, K179A + K191A versus WT, 25 °C; significant. It counts as binding.
The target in experiment [3] is T2, wild-type human H1 receptors (WT) (Homo sapiens, UniProt P35367).
T2 construct: 3xHA (three copies of hemagglutinin YPYDVPDYA) (N); membrane preparations
T2 sequence (P35367 whole entry): as the sequence (P35367 whole entry K179A/K191A) above, with A179K, A191K counted along it
Kind of experiment: biochemical. It counts as binding.

The target in experiment [4] is T3, K191A (Lys191 mutant of H1 receptor to alanine) (Homo sapiens, UniProt P35367, K191A).
T3 construct: 3xHA (three copies of hemagglutinin YPYDVPDYA) (N); expressed in transfected cells; membrane preparations
T3 sequence (P35367 whole entry K191A): as the sequence (P35367 whole entry K179A/K191A) above, with A179K counted along it
The experiment in a line: [3H]mepyramine displacement binding, membranes of CHO cells expressing K191A mutant. On the procedure:
as §1
CHO cells stably expressing WT, K179A, K191A, and K179A + K191A were cultured, and membrane preparations were obtained as described previously. The receptor binding assay with [^3H] mepyramine, a radioligand for H1 receptors, was performed in accordance with the methods described previously. Briefly, aliquots (0.1 mL) of membrane preparations (approximately 50 µg of membrane proteins) were incubated with 3 nM [^3H] mepyramine in the presence or absence of various concentrations of bilastine for 3 h at 37 °C, 24 h at 25 °C and 14 °C, and 7 days at 4 °C in normal HEPES buffer (NaCl, 120 mM; KCl, 5.4 mM; MgCl2, 1.6 mM; CaCl2, 1.8 mM, D-glucose, 11 mM; and HEPES, 25 mM; pH 7.4 at 37 °C; final volume 1 mL). The reaction mixture was filtered through glass fiber filters, and the radioactivity trapped on the filters was determined by scintillation counting. All determinations were made in quadruplicate. The protein content in the membrane preparations was determined using a BCA protein assay kit (Pierce, Rockford, IL, USA).
as §3

The target in experiment [5] is T4, K179A (Lys179 mutant of H1 receptor to alanine) (Homo sapiens, UniProt P35367, K179A).
T4 construct: 3xHA (three copies of hemagglutinin YPYDVPDYA) (N); expressed in transfected cells; membrane preparations
T4 sequence (P35367 whole entry K179A): as the sequence (P35367 whole entry K179A/K191A) above, with A191K counted along it
The experiment in a line: [3H]mepyramine displacement binding, membranes of CHO cells expressing K179A mutant. As to the method: as §1, §2, §3

Setting [6] is: K191A versus WT, van 't Hoff analysis 4-37 °C, significant.

For the compound `CCOCCn1c(C2CCN(CCc3ccc(C(C)(C)C(=O)O)cc3)CC2)nc2ccccc21` [bilastine, Bilastine], the inhibitory constant (Ki) in experiment [1] was 7.96 ± 0.76 nM; in experiment [3] it was 1.92 ± 0.08 nM; in experiment [4], 2.57 ± 0.16 nM; in experiment [5], 5.2 ± 1.18 nM. For the same compound, the “reduction in the entropy-dependent binding forces (∆T∆S°) by mutation” value in experiment [1] (K179A + K191A versus WT, van 't Hoff analysis 4-37 °C, not significant) stood at 2.2 kJ/mol; in experiment [4] (setting [6]), 8.2 kJ/mol. Further, in experiment [2], the “reduction of affinity for H1 receptors following mutation of Lys179 and/or Lys191” value lay within 1.3 to 4.1 times. The “increase in enthalpy-dependent binding forces (∆H°) by mutation” value in experiment [4] (setting [6]) is reported as 8.1 kJ/mol. In addition, in experiment [5] (K179A versus WT, van 't Hoff analysis 4-37 °C, not significant), the “reduction in the enthalpy-dependent binding forces (∆H°) by mutation” value came out at 1.9 kJ/mol.

As usually defined, the Ki is a dissociation constant, usually derived from enzyme kinetics or from competition with a known ligand.
